Like-named read-outs stand apart in the source and are kept apart here.
Test system: T1, synaptosomal proteome
T1 construct: from tissue; host or cells: brain synaptosomes of male C57/B6 mice
Format: binding, mouse
Description: Synaptosomes were resuspended to 1 mg of protein/ml in HEPES buffer medium (in mM: 140 NaCl, 5 KCl, 5 NaHCO3, 1.2 NaH2PO4, 1 MgCl2, 10 glucose, and 10 HEPES (pH 7.4)). […] The samples were allowed to equilibrate for 5 min before being transferred to a parafilm-sealed 1-mm path length quartz cuvette. The sample was then irradiated for 20 min at a peak bandwidth of 350 nm (Rayonet RPR-3500 lamp) ∼6 cm from the light source. Non-irradiated samples were left in the dark at ambient temperature (22–25 °C) for 20 min. All remaining procedures were conducted with restricted light exposure.
To 750 μg of photolabeled or control synaptosome samples, 40 μl of 10% SDS and 2 μl of 5 mM DTT in water were added. Samples were then vortexed, heated for 10 min at 65 °C, and then briefly cooled. Final concentrations of 150 μM azide-biotin (Click Chemistry Tools), 2 mM tris(3-hydroxypropyltriazolylmethyl)amine (Sigma), 1 mM ascorbic acid (Sigma), and 1 mM CuSO4·5H2O (Sigma) were added to each sample and vortexed vigorously. The samples were left in the dark at ambient temperature (22–25 °C) for 1 h with mild agitation. Directly to each sample 4× volume chilled methanol, 1.5× chilled chloroform, and 3× chilled double distilled H2O were added. Samples were vortexed vigorously and centrifuged at 1,400 × g for 30 min at 4 °C. Both liquid layers were carefully removed, and the protein pellet was washed with 2 ml of 1:1 (v/v) chilled methanol/chloroform. Samples were centrifuged at 3,500 × g for 30 min at 4 °C. Protein pellets were briefly air-dried before further processing.
750 μg of biotin-conjugated protein sample was resuspended in 500 μl of 25 mM NH4HCO3 and 6 M urea in water. Next, 150 μl of 5% Triton X-100 in water, 50 μl of 10% SDS in water, and 1.5 μl of 0.5 M DTT were added. The samples were heated for 15 min at 65 °C. After briefly cooling, 14 μl of 0.5 M iodoacetamide in water was added, and the sample was left in the dark for 45 min. […] The supernatant was diluted to 4 ml with PBS, and 2 ml of PBS containing 100 μl of 50% streptavidin-agarose resin (Thermo Scientific) was added. Biotinylated proteins within the sample were captured over resin overnight at 4 °C with mild agitation. The resin was first washed with 6 ml of 1% SDS in PBS, and then 7 ml of 0.1 M urea in PBS followed by 10 ml of PBS. The resin underwent a final wash with 0.9 ml of 50 mM Tris-HCl and 1 mM CaCl2 in water (pH 8.0) and then resuspended in 200 μl of 50 mM Tris-HCl, 1 mM CaCl2 in water (pH 8.0), and 2 μg of porcine sequencing grade trypsin (Promega). Samples were digested overnight at 37 °C. Samples were then centrifuged at 2,000 × g for 4 min, and digest supernatant was decanted. Beads were washed in 100 μl of PBS centrifuged at 5,200 × g for 5 min, and the wash was combined with the digest supernatant. To the combined sample, trifluoroacetic acid (TFA) was added to 0.4% (v/v) or until pH <2. The sample was desalted with Oasis C18 10-mg columns (Waters) as described previously ([66]). The eluted sample was dried by speed vac and resuspended in 0.1 M HEPES buffer (pH 8.5). […] Appropriate corresponding TMTsixplex^TM-labeled samples were pooled and dried by speed vac. The combined samples were resuspended in 0.5% acetic acid in water and pH-corrected with acetic acid until pH was <2. 40 μg of protein was desalted with C18 stage tips prepared in-house and dried by speed vac.
Samples were resuspended in 10 mM KH2PO4 (pH 2.6), 30% acetonitrile (v/v) in water, and fractionated by off-line strong cation exchange chromatography prior to mass spectrometry (MS) analysis similar to as reported previously ([66]). The full synaptosome proteome control was prepared similarly without TMTsixplex^TM labeling.
All TMT samples were analyzed with three-stage mass spectrometry (MS3) TMTsixplex^TM quantification workflow as described previously ([34]).

[1] = protein Q8BH66 Atlastin-1 (Atl1)
[2] = protein Q8BHE3 Caytaxin (Atcay)
[3] = protein Q8BUN9 Protein Slc24a2 (Slc24a2)
[4] = protein Q8BW75 Amine oxidase [flavin-containing] B (Maob)
[5] = protein Q8CGK7 Guanine nucleotide-binding protein G(olf) subunit alpha (Gnal)
[6] = protein Q8K0T0 Reticulon-1 (Rtn1)
[7] = protein Q8VCX5 Calcium uptake protein 1, mitochondrial (Micu1)
[8] = protein Q9CPQ3 Mitochondrial import receptor subunit TOM22 homolog (Tomm22)
[9] = protein Q9D6J5 NADH dehydrogenase [ubiquinone] 1 beta subcomplex subunit 8, mitochondrial (Ndufb8)
[10] = protein Q9D328 Transmembrane protein 35 (Tmem35)
[11] = protein Q9ERS2 NADH dehydrogenase [ubiquinone] 1 alpha subcomplex subunit 13 (Ndufa13)
[12] = protein Q9ESW4 Acylglycerol kinase, mitochondrial (Agk)
[13] = protein Q9JIG8 PRA1 family protein 2 (Praf2)
[14] = protein Q9QXV0 ProSAAS (Pcsk1n)
[15] = protein Q9WU79 Proline dehydrogenase 1, mitochondrial (Prodh)
[16] = protein Q9Z0V2 Potassium voltage-gated channel subfamily D member 2 (Kcnd2)
[17] = protein Q67BT3 Solute carrier family 13 member 5 (Slc13a5)
[18] = protein Q80X80 C2 domain-containing protein 2-like (C2cd2l)
[19] = protein Q91YQ5 Dolichyl-diphosphooligosaccharide--protein glycosyltransferase subunit 1 (Rpn1)
[20] = protein Q99JB2 Stomatin-like protein 2, mitochondrial (Stoml2)
[21] = protein Q99PU5 Long-chain-fatty-acid--CoA ligase ACSBG1 (Acsbg1)
[22] = protein Q925I1 ATPase family AAA domain-containing protein 3 (Atad3)

For `C#CCOCc1ccc(C2(C(F)(F)F)N=N2)cc1O` [AziPm-click (1), 2-((prop-2-yn-1-yloxy)methyl)-5-(3-(trifluoromethyl)-3H-diazirin-3-yl)phenol], the “TMT Ratio Mean 'UV/ No UV'” value (protein Q8BH24 Transmembrane 9 superfamily member 4 (Tm9sf4)) was 16.97, the “Log2( Mean 'UV/ No UV')” value [1] was 4.36 and the “TMT Ratio Mean 'UV/ No UV'” value [1] was 20.55. The “Log2( Mean 'UV/ No UV')” value [2] was 4.15, the “TMT Ratio Mean 'UV/ No UV'” value [2] was 17.78 and the “Log2( Mean 'UV/ No UV')” value (protein Q8BJU0-2 Isoform 2 of Small glutamine-rich tetratricopeptide repeat-containing protein alpha (Sgta)) was 3.93. For the same compound, the “Log2( Mean 'UV/ No UV')” value [3] was 4.26, the “TMT Ratio Mean 'UV/ No UV'” value [3] was 19.15 and the “Log2( Mean 'UV/ No UV')” value [4] was 4.59. For the same compound, the “TMT Ratio Mean 'UV/ No UV'” value [4] was 24.13, the “Log2( Mean 'UV/ No UV')” value [5] was 3.86 and the “TMT Ratio Mean 'UV/ No UV'” value [5] was 14.56. The “Log2( Mean 'UV/ No UV')” value [6] was 3.46, the “TMT Ratio Mean 'UV/ No UV'” value [6] was 10.99 and the “Log2( Mean 'UV/ No UV')” value [7] was 4.33. For the same compound, the “TMT Ratio Mean 'UV/ No UV'” value [7] was 20.04, the “Log2( Mean 'UV/ No UV')” value [8] was 4.38 and the “TMT Ratio Mean 'UV/ No UV'” value [8] was 20.75. For the same compound, the “Log2( Mean 'UV/ No UV')” value [9] was 4.29, the “TMT Ratio Mean 'UV/ No UV'” value [9] was 19.55 and the “Log2( Mean 'UV/ No UV')” value [10] was 4.09. The “TMT Ratio Mean 'UV/ No UV'” value [10] was 16.99, the “Log2( Mean 'UV/ No UV')” value (protein Q9DBF1-2 Isoform 2 of Alpha-aminoadipic semialdehyde dehydrogenase (Aldh7a1)) was 3.89 and the “Log2( Mean 'UV/ No UV')” value (protein Q9EPJ9-2 Isoform 2 of ADP-ribosylation factor GTPase-activating protein 1 (Arfgap1)) was 3.44. For the same compound, the “Log2( Mean 'UV/ No UV')” value [11] was 4.27, the “TMT Ratio Mean 'UV/ No UV'” value [11] was 19.26 and the “Log2( Mean 'UV/ No UV')” value [12] was 4.32. For the same compound, the “TMT Ratio Mean 'UV/ No UV'” value [12] was 20.02, the “Log2( Mean 'UV/ No UV')” value [13] was 3.94 and the “TMT Ratio Mean 'UV/ No UV'” value [13] was 15.37. The “Log2( Mean 'UV/ No UV')” value [14] was 3.87, the “TMT Ratio Mean 'UV/ No UV'” value [14] was 14.66 and the “Log2( Mean 'UV/ No UV')” value [15] was 4.21. The “TMT Ratio Mean 'UV/ No UV'” value [15] was 18.52, the “Log2( Mean 'UV/ No UV')” value [16] was 3.71 and the “TMT Ratio Mean 'UV/ No UV'” value [16] was 13.09. For the same compound, the “Log2( Mean 'UV/ No UV')” value [17] was 3.47, the “TMT Ratio Mean 'UV/ No UV'” value [17] was 11.09 and the “Log2( Mean 'UV/ No UV')” value [18] was 4.07. For the same compound, the “TMT Ratio Mean 'UV/ No UV'” value [18] was 16.73, the “Log2( Mean 'UV/ No UV')” value [19] was 3.76 and the “TMT Ratio Mean 'UV/ No UV'” value [19] was 13.55. The “Log2( Mean 'UV/ No UV')” value [20] was 4.08, the “TMT Ratio Mean 'UV/ No UV'” value [20] was 16.91 and the “Log2( Mean 'UV/ No UV')” value [21] was 4.16. For the same compound, the “TMT Ratio Mean 'UV/ No UV'” value [21] was 17.83, the “Log2( Mean 'UV/ No UV')” value [22] was 4.41 and the “TMT Ratio Mean 'UV/ No UV'” value [22] was 21.20.

— PMC5034043 (The Journal of Biological Chemistry, 2016)
